These results are taken from patent publication US9725441B2, “Histone demethylase inhibitors” (CELGENE QUANTICEL RESEARCH, INC., priority 2012, dated 2017).

Sequence of JMJD2C (Q9H3R0 2-372): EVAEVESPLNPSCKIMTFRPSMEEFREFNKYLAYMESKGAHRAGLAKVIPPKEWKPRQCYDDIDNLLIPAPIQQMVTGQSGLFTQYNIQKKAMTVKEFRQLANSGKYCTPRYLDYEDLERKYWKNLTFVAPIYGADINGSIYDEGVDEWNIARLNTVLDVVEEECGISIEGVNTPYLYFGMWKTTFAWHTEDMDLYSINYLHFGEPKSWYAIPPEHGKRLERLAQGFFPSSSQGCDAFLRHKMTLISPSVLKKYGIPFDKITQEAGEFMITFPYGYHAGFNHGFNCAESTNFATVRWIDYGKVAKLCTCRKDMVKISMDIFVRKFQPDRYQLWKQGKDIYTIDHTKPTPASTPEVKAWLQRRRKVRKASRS

The target of the test is JMJD2C (Homo sapiens (Human), UniProt Q9H3R0). In words: JMJD2C in vitro enzyme inhibition assay (TR-FRET). The class given is biochemical. The following applies: 0.3 nM JMJD2C, 300 nM H3K9me3-biotin peptide, 2 μM alpha-ketoglutaric acid. From the text:
This assay determines the ability of a test compound to inhibit Jarid1A, Jarid1B, and JMJD2C demethylase activity. Baculovirus expressed Jarid1A (GenBank Accession #NM_001042603, AA1-1090) was purchased from BPS Bioscience (Cat#50110). Baculovirus expressed Jarid1B (GenBank Accession #NM_006618, AA 2-751) was purchased from BPS Bioscience (Cat #50121) or custom made by MolecularThroughput. Baculovirus-expressed JMJD2C (GenBank Accession #BC143571, AA 2-372) was purchased from BPS Bioscience (Cat#50105).
The ability of test compounds to inhibit the activity of JMJD2C was determined in 384-well plate format under the following reaction conditions: 0.3 nM JMJD2C, 300 nM H3K9me3-biotin labeled peptide (Anaspec cat #64360), 2 μM alpha-ketoglutaric acid in assay buffer of 50 mM HEPES, pH7.3, 0.005% Brij35, 0.5 mM TCEP, 0.2 mg/ml BSA, 50 μM sodium L-ascorbate, and 2 μM ammonium iron(II) sulfate. Reaction product was determined quantitatively by TR-FRET after the addition of detection reagent Phycolink Streptavidin-allophycocyanin (Prozyme) and Europium-anti-di-methylated histone H3 lysine 9 (H3K9me2) antibody (PerkinElmer) in the presence of 5 mM EDTA in LANCE detection buffer (PerkinElmer) at a final concentration of 50 nM and 1 nM, respectively.
The reaction mixture was incubated at room temperature for 30 min, and terminated by the addition of 6 μl of 5 mM EDTA in LANCE detection buffer containing 100 nM Phycolink Streptavidin-allophycocyanin and 2 nM Europium-anti-H3K9me2 antibody. Plates were read by EnVisionMultilabel Reader in TR-FRET mode (excitation at 320 nm, emission at 615 nm and 665 nm) after 1 hr incubation at rt. A ratio was calculated (665/615) for each well and fitted to determine inhibition constant (IC50).
For the substance “3-{[(6-chloro-1,2,3,4-tetrahydronaphthalen-1-yl)methyl]amino}pyridine-4-carboxylic acid [Example 67]”, the IC50 is 100 to 1000 nM.
As to “3-{[(6-chloro-1-hydroxy-1,2,3,4-tetrahydronaphthalen-1-yl)methyl]amino}pyridine-4-carboxylic acid [Example 68]”, the IC50 lay in the range of 100 to 1000 nM.
“3-{[(6-fluoro-3,4-dihydro-2H-chromen-4-yl)methyl]amino}-pyridine-4-carboxylic acid [Example 65]”: the IC50 is at most 100 nM.
